Read-outs that look alike come from different tables or passages of the source. Where a SMILES comes first, the peptide text is derived from it. Bridges are numbered along the chain shown (N, C = ends). Roman numbers before positions name the chains, in order. [ ]: non-standard residue; d: D form. The star is where a group is joined. PNA(A) = NCCN(CC(=O)*)C(=O)Cn1cnc2c(N)ncnc21; Adenin9ylacetyl = Nc1ncnc2c1ncn2CC(=O)*; Gly(N-2-aminoethyl) = NCCNCC(=O)O
Columns and labels:
PKC beta 2 = molecular target: T1, PKC beta 2 (Homo sapiens, UniProt P05771); test: PepTag Non-Radioactive PKC Assay, purified isoform; type: biochemical; settings: negative = activation
T1 construct: purchased
Protocol: (§1) The inhibitory effect of the PKI compounds 1 to 10 on purified commercially available isoforms representative of the 3 classes of PKC: cPKC (alpha, betaI/II) nPKC (delta and epsilon) aPKC (zeta) was assayed using the PepTag® Non-Radioactive PKC Assay (Promega, Madison, Wis.). The zeta isoform was tested with this assay although its affinity for the substrate provided in the kit was relatively low. The amount of enzyme in the reaction mixture for the PKC zeta assays was multiplied by 2. The assay was used following the manufacturer's recommendations. The principle of the assay is based on the difference in charge of phosphorylated (negatively charged) form versus the non-phoshorylated form of a fluorescent substrate. The two forms can be separated by gel electrophoresis and the negatively charged band excised and the fluorescence measured (exc. 440 nm and em. 590 nm) in 96 well plates on a Galaxy FluoStar plate reader. The PKI compounds were added to the assay mixture at 3 doses: 150, 300 and 600 μM and an extra 75 μM when the inhibition was too high. The assay is strictly biochemical and the doses of the compounds used, therefore, are generally not correlative with in vivo situations.

PKC delta [1] = molecular target: T2, PKC delta (Homo sapiens, UniProt Q05655); test: PepTag Non-Radioactive PKC Assay, purified isoform; type: biochemical; settings: negative = activation
Protocol: as §1

PKC alpha = PKC alpha (Homo sapiens, UniProt P17252); test: PepTag Non-Radioactive PKC Assay, purified isoform; type: biochemical; set-up: purchased; settings: negative = activation
Protocol: as §1

PKC beta 1 = PKC beta 1 (Homo sapiens, UniProt P05771); test: PepTag Non-Radioactive PKC Assay, purified isoform; type: biochemical; set-up: purchased; settings: negative = activation
Protocol: as §1

PKC epsilon = molecular target: T3, PKC epsilon (Homo sapiens, UniProt Q02156); test: PepTag Non-Radioactive PKC Assay, purified isoform; type: biochemical; set-up: purchased; settings: negative = activation
T3 sequence (Q02156 1-737): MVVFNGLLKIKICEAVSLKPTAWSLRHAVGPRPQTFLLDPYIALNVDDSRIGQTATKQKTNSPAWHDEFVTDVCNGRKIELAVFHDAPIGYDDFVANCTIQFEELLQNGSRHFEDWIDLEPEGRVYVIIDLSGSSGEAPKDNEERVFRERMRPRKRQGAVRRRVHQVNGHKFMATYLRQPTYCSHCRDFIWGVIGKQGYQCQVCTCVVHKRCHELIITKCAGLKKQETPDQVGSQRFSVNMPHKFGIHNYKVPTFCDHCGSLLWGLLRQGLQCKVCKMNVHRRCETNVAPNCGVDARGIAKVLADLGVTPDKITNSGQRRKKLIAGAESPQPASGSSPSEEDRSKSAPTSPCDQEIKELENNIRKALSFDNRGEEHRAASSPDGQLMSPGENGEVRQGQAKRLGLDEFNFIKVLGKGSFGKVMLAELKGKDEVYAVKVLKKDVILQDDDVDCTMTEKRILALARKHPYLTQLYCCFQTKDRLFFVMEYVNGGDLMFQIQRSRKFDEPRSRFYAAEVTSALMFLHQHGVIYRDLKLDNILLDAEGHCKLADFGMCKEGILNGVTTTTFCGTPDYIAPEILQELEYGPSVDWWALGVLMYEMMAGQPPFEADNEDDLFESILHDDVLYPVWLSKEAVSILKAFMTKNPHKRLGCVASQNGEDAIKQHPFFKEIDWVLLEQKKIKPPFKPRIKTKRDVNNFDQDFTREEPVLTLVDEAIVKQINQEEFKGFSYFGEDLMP
Protocol: as §1

PKC zeta = molecular target: T4, PKC zeta (Homo sapiens, UniProt Q05513); test: PepTag Non-Radioactive PKC Assay, purified isoform; type: biochemical; set-up: purchased; settings: enzyme amount x2, negative = activation
T4 sequence (Q05513 1-592): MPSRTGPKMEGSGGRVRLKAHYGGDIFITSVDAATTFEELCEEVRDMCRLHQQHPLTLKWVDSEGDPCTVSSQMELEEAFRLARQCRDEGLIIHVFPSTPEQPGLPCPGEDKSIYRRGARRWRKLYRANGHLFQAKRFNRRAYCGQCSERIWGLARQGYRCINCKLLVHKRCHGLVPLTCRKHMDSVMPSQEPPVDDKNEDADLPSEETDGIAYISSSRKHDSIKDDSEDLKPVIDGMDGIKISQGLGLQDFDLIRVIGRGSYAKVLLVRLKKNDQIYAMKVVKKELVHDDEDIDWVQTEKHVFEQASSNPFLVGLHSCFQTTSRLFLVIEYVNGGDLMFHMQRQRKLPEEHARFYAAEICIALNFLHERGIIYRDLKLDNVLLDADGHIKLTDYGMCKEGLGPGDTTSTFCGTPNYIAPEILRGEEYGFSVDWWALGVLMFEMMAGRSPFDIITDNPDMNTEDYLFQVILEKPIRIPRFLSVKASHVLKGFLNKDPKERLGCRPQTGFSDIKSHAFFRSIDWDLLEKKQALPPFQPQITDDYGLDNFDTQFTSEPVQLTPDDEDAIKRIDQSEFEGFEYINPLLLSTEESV
Protocol: as §1

[2] = test system: IMR-32 human neuroblastoma cells
Protocol: The ability of compounds PKI 1, PKI 2 and PKI 3 to inhibit cancer cell proliferation was tested in vitro using the human neuroblastoma cell line IMR-32. Monolayer cell cultures were trypsinized and the test compound was added at the doses indicated in Table 24 and internalized by pinocytic endocytosis using Influx TM pinocytic cell-loading reagent, a kit from Molecular Probes (Eugene, Oreg.) following the manufacturer's recommendations. The indicated doses refer to the concentration in the loading medium, which was used on 1×10^6 cells in a 10 μl volume, i.e. contained 10 μg to 100 ug of test compound that provides […] per cell. […] The cells were treated on day 0 of the experiment. The cells loaded with test compound were cultured in 96 well plates (5,000 cells in 100 μl per well), and the proliferation was monitored over 3 consecutive days. The increase in cell population was quantified using a Hoechst reagent-based assay (modified from Rao and Otto, 1992, Analytical Biochem. 207:186-192) that measures the total DNA of the population. Fluorescence was measured using a Millipore CytoFluor 2350 plate reader (excitation at 360 nm and emission at 460 nm). The measurements were obtained as relative fluorescence intensity, a value that is directly correlated to the total number of cells. Data are expressed as a percentage of matching controls that were supplemented with culture medium alone.
The ability of the compound TIM 9 to inhibit cancer cell proliferation was tested in vitro using the human neuroblastoma cell line IMR-32 and following the general protocol described in Example 14.
The ability of the compound TIM 11 to inhibit IMR-32 cancer cell proliferation was tested in vitro following the general protocol described in Example 14.
The ability of the compound TIM 10 to inhibit cancer cell proliferation was tested in vitro using the human neuroblastoma IMR-32 cell line and following the general protocol described in Example 14.

PKC delta [3] = molecular target: T2, PKC delta; test: Kinase-Glo Luminescent Kinase Assay; type: biochemical
Protocol: Compounds TIM 10, 11, 13, 14, 15, and 18-22 (see Table 28) were tested for their ability to inhibit the activity of PKC-alpha, beta 1, delta and epsilon isoforms the Kinase-Glo™ Luminescent Kinase Assay (Promega, Cat # V6712/3/4) following the manufacturer's instructions.

[4] = 1.0 mg/mL in loading medium, 24 h
[5] = 1.0 mg/mL in loading medium, 48 h
[6] = 1.0 mg/mL in loading medium, 72 h
[7] = 2.5 mg/mL in loading medium, 24 h
[8] = 2.5 mg/mL in loading medium, 48 h
[9] = 2.5 mg/mL in loading medium, 72 h
[10] = 5.0 mg/mL in loading medium, 24 h
[11] = 5.0 mg/mL in loading medium, 48 h
[12] = 5.0 mg/mL in loading medium, 72 h
[13] = 10.0 mg/mL in loading medium, 24 h
[14] = 10.0 mg/mL in loading medium, 48 h
[15] = 10.0 mg/mL in loading medium, 72 h

Sequence of PKC beta 1 (P05771 whole entry, canonical isoform): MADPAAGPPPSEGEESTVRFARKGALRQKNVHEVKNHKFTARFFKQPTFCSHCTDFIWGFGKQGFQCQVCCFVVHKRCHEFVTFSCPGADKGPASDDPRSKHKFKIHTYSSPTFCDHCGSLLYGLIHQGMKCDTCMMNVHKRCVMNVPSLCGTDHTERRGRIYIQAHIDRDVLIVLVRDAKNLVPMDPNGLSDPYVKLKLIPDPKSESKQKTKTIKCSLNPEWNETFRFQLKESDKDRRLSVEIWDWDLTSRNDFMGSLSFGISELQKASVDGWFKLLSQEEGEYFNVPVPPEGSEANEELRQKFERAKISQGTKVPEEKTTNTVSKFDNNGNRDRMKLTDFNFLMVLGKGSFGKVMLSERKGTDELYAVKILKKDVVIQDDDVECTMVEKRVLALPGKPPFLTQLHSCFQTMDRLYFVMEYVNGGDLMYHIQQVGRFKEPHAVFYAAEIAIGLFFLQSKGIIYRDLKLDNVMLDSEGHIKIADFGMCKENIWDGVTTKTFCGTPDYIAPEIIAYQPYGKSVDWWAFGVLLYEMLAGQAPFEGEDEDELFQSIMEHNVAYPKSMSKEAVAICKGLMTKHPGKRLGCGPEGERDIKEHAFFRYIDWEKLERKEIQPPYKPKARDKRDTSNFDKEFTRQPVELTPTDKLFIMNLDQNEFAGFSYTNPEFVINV
T2 sequence (Q05655 whole entry, canonical isoform): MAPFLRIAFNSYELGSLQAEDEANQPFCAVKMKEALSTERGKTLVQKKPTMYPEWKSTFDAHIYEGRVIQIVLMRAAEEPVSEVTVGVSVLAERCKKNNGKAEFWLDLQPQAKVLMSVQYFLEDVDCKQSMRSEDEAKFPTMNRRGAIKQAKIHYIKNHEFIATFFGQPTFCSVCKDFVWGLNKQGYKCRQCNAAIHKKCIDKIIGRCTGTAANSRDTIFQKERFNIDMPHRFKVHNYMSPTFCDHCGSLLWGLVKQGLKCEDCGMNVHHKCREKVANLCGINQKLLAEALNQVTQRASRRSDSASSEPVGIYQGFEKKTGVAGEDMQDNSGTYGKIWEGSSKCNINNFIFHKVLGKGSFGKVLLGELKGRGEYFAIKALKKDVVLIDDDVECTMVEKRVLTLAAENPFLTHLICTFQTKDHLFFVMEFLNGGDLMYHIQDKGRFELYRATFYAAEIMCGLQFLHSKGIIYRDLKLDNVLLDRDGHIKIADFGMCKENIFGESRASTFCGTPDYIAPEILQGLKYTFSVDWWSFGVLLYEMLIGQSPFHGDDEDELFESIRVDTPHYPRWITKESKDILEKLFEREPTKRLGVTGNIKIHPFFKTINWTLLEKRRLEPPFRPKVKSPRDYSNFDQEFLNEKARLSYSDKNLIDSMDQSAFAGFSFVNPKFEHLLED
T1 sequence (P05771 1-673 isoform P05771-2): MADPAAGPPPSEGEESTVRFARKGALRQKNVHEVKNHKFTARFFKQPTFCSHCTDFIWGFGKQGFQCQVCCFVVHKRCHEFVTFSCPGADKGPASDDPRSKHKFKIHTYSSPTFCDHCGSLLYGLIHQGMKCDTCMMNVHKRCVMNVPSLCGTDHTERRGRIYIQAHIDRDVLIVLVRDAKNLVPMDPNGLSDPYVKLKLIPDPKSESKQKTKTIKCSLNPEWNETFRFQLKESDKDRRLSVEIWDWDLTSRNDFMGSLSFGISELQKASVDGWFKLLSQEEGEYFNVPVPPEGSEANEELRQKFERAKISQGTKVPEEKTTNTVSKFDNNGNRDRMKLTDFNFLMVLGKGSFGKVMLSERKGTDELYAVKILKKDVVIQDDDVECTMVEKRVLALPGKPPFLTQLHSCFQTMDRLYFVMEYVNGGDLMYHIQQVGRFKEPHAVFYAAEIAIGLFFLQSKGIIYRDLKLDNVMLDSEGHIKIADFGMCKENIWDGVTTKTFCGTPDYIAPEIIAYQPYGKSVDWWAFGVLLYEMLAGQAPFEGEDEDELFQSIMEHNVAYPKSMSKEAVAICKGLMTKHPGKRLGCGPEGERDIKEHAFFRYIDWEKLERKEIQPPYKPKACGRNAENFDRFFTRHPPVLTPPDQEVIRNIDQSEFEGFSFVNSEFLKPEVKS

Compound	inhibition at 150 µM (PKC beta 2)	inhibition at 300 µM (PKC beta 2)	inhibition at 600 µM (PKC beta 2)	inhibition at 150 µM (PKC delta [1])	inhibition at 300 µM (PKC delta [1])	inhibition at 600 µM (PKC delta [1])	inhibition at 150 µM (PKC alpha)	inhibition at 300 µM (PKC alpha)	inhibition at 600 µM (PKC alpha)	inhibition at 150 µM (PKC beta 1)	inhibition at 300 µM (PKC beta 1)	inhibition at 600 µM (PKC beta 1)	inhibition at 150 µM (PKC epsilon)	inhibition at 300 µM (PKC epsilon)	inhibition at 600 µM (PKC epsilon)	inhibition at 150 µM (PKC zeta)	inhibition at 300 µM (PKC zeta)	inhibition at 600 µM (PKC zeta)	% Inhibition of IMR-32 proliferation [2, 4]	% Inhibition of IMR-32 proliferation [2, 5]	also measured
CC[C@H](C)[C@H](NC(=O)[C@H](CSSC[C@H](NC(=O)CNC(=O)CN(CCN)C(=O)Cn1cnc2c(N)ncnc21)C(=O)N[C@@H](CCCCN)C(=O)NCC(=O)N[C@@H](CCCCN)C(=O)N[C@@H](Cc1ccccc1)C(=O)N[C@@H](CCCCN)C(=O)N[C@@H](CCCNC(=N)N)C(N)=O)NC(=O)[C@H](Cc1c[nH]cn1)NC(C)=O)C(=O)NCC(=O)N[C@@H](CCCNC(=N)N)C(=O)N[C@@H](Cc1ccccc1)C(=O)N[C@@H](CCCCN)C(N)=O [PKI 1] (I: Adenin9ylacetyl-[Gly(N-2-aminoethyl)]GCKGKFKR-NH2 / II: Ac-HCIGRFK-NH2; disulfide I:3-II:2; C-terminus assumed)	78%	90%	92%	56%	61%	88%	78%	84%	87%	71%	92%	93%	54%	58%	83%	15%	10%	20%	–	–	–
CC(=O)N[C@@H](CC(C)C)C(=O)N[C@@H](CCCNC(=N)N)C(=O)N[C@@H](CCCNC(=N)N)C(=O)N[C@@H](C)C(=O)N[C@@H](CCCCNC(=O)CN(CCN)C(=O)Cn1cnc2c(N)ncnc21)C(=O)N[C@@H](CC(C)C)C(=O)NCC(N)=O [PKI 2] (Ac-LRRAK(PNA(A))LG-NH2; C-terminus assumed)	-59%	61%	74%	59%	79%	84%	-24%	35%	83%	18%	52%	70%	58%	67%	84%	0%	6%	20%	49%	51%	% Inhibition of IMR-32 proliferation [2, 6]: 10%; % Inhibition of IMR-32 proliferation [2, 7]: 29%; % Inhibition of IMR-32 proliferation [2, 8]: 21%; % Inhibition of IMR-32 proliferation [2, 9]: 26%; % Inhibition of IMR-32 proliferation [2, 10]: 31%; % Inhibition of IMR-32 proliferation [2, 11]: 20%; % Inhibition of IMR-32 proliferation [2, 12]: 17%; % Inhibition of IMR-32 proliferation [2, 13]: 31%; % Inhibition of IMR-32 proliferation [2, 14]: 29%; % Inhibition of IMR-32 proliferation [2, 15]: 21%
CC(=O)N[C@@H](Cc1ccccc1)C(=O)N[C@@H](CCCNC(=N)N)C(=O)N[C@@H](CCCNC(=N)N)C(=O)N[C@@H](CCCCNC(=O)CN(CCN)C(=O)Cn1cnc2c(N)ncnc21)C(=O)N[C@@H](Cc1ccccc1)C(=O)N[C@@H](CCCNC(=N)N)C(=O)N[C@@H](CC(C)C)C(N)=O [PKI 3] (Ac-FRRK(PNA(A))FRL-NH2; C-terminus assumed)	31%	83%	81%	32%	41%	70%	47%	51%	82%	37%	76%	80%	38%	53%	68%	37%	40%	56%	70%	72%	% Inhibition of IMR-32 proliferation [2, 6]: 72%; % Inhibition of IMR-32 proliferation [2, 7]: 26%; % Inhibition of IMR-32 proliferation [2, 8]: 29%; % Inhibition of IMR-32 proliferation [2, 9]: 14%; % Inhibition of IMR-32 proliferation [2, 10]: 29%; % Inhibition of IMR-32 proliferation [2, 11]: 31%; % Inhibition of IMR-32 proliferation [2, 12]: 22%; % Inhibition of IMR-32 proliferation [2, 13]: 26%; % Inhibition of IMR-32 proliferation [2, 14]: 30%; % Inhibition of IMR-32 proliferation [2, 15]: 22%
Ac—FRRCFRL—(G)7—RRKKGGKDFVVKR—NH2 (Ac-FRRCFRLGGGGGGGRRKKGGKDFVVKR-NH2) [TIM 20, PRE 1 and PKI 4]	–	–	–	–	–	–	–	–	–	–	–	–	–	–	–	–	–	–	–	–	% Inhibition PKC-δ (PKC delta [3]; 5.0 μM): 46.0%; % Inhibition PKC-δ (PKC delta [3]; 30.0 μM): 45.4%; inhibition of PKC delta activity (in words) (PKC delta [3]; Kinase-Glo): good specificity for PKC delta

— US20110039770A1, “INHIBITORS OF PROTEIN KINASE C ISOFORMS AND USES THEREOF” (PHARMAGAP INC., priority 2005, published 2011)
